Each structure is given as a SMILES string.

The target in one assay is Aldo-keto reductase family 1 member B1 (Rattus norvegicus, UniProt P07943). Briefly: biochemical. Format: tissue-based, Lens of camera-type eye.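 Note: inhibition of aldose reductase enzyme activity, measured with DL-glyceraldehyde as the substrate; in other assays of this panel Not Active means under 50% inhibition at 10 µM.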
Conditions: not given
`COc1ccc(Cc2nccc3cc(OC)c(OC)cc23)cc1OC` [PAPAVERINE]: the IC50 entry is recorded as “Not Active”.

For `OCCN1CCN(CCCN2c3ccccc3Sc3ccc(Cl)cc32)CC1` [PERPHENAZINE], the IC50 entry is “Not Active”.

Turning to `CCCCC1C(=O)N(c2ccccc2)N(c2ccccc2)C1=O` [PHENYLBUTAZONE], the IC50 result is recorded as “Not Active”.

A further assay concerns the target T1, Calcitonin receptor (Homo sapiens, UniProt P30988). Note: in other assays of this panel Not Active means under 50% inhibition at 10 µM.
T1 sequence (P30988 whole entry): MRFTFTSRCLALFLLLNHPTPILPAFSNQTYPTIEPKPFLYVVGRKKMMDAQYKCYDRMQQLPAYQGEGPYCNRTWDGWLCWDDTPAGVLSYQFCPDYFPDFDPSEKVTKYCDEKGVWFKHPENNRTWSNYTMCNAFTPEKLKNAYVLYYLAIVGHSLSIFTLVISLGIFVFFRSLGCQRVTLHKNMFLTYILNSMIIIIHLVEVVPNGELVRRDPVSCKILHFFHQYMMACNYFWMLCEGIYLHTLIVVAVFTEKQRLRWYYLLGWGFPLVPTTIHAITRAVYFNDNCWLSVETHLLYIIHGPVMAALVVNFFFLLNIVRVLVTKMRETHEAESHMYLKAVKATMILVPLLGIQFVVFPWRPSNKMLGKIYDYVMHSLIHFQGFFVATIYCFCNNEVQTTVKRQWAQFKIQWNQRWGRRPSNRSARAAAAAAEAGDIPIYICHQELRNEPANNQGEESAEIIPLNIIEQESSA
Experiment: not given
Format: cell membranes, Membrane. The conditions noted are these: t47d.
For `COc1ccc(Cc2nccc3cc(OC)c(OC)cc23)cc1OC` [PAPAVERINE], the IC50 entry is on record as “Not Active”.

Regarding `OCCN1CCN(CCCN2c3ccccc3Sc3ccc(Cl)cc32)CC1` [PERPHENAZINE], the IC50 result is recorded as “Not Active”.

With `CCCCC1C(=O)N(c2ccccc2)N(c2ccccc2)C1=O` [PHENYLBUTAZONE], the IC50 entry is “Not Active”.

Tested on in a further assay: not listed separately
Briefly: DRUGMATRIX: Calcium Channel Type L, Phenylalkylamine radioligand binding (ligand: [3H] (-)-Desmethoxyverapamil (D-888)). Format: cell membranes, Rattus norvegicus, Wistar, Brain, Membrane. Particulars: Not Active = under 50% inhibition at 10 µM.
Consider `COc1ccc(Cc2nccc3cc(OC)c(OC)cc23)cc1OC` [PAPAVERINE], for which the IC50 entry was “Not Active” and the Ki entry was “Not Active”.

For `OCCN1CCN(CCCN2c3ccccc3Sc3ccc(Cl)cc32)CC1` [PERPHENAZINE], the IC50 result is recorded as “Not Active” and the Ki entry is “Not Active”.

For the compound `CCCCC1C(=O)N(c2ccccc2)N(c2ccccc2)C1=O` [PHENYLBUTAZONE], the IC50 entry is reported as “Not Active” and the Ki entry is “Not Active”.

A further assay addresses T2, D(4) dopamine receptor (Homo sapiens, UniProt P21917).
T2 sequence (P21917 whole entry): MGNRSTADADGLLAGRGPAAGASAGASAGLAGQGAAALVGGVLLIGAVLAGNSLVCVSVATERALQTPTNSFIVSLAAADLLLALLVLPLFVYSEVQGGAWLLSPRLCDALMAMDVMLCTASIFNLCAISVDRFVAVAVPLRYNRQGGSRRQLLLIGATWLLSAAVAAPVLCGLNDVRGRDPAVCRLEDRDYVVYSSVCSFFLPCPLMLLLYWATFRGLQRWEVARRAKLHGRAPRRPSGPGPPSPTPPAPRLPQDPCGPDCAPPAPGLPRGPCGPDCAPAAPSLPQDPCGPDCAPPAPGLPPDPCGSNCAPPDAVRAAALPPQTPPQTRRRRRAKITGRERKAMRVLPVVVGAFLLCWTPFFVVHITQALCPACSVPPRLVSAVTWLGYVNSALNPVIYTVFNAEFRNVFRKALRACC
As to the kind of experiment: DRUGMATRIX: Dopamine D4.2 radioligand binding (ligand: [3H] Spiperone). Format: cell membranes, CHO-K1, Membrane. The conditions noted are these: cho-k1; Not Active = under 50% inhibition at 10 µM.
For `COc1ccc(Cc2nccc3cc(OC)c(OC)cc23)cc1OC` [PAPAVERINE], the IC50 entry is on record as “Not Active”.

Take `OCCN1CCN(CCCN2c3ccccc3Sc3ccc(Cl)cc32)CC1` [PERPHENAZINE]: the IC50 entry is given as “Not Active”.

Turning to `CCCCC1C(=O)N(c2ccccc2)N(c2ccccc2)C1=O` [PHENYLBUTAZONE], the IC50 entry is given as “Not Active”.

The next assay concerns the target T3, Endothelin-1 receptor (Homo sapiens, UniProt P25101). Note: in other assays of this panel Not Active means under 50% inhibition at 10 µM.
T3 sequence (P25101 whole entry): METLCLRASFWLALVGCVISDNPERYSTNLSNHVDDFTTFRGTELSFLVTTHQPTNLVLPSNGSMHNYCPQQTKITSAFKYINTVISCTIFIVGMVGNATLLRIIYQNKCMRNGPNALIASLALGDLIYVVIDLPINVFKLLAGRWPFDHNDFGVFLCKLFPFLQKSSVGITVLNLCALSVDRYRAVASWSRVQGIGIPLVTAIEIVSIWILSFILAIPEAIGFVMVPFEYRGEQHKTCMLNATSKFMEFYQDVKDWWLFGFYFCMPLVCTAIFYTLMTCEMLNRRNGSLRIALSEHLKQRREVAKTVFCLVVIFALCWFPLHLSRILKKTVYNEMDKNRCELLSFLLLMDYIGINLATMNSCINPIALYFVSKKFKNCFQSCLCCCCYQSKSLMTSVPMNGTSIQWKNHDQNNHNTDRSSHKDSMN
Experiment: not given
Format: cell membranes, CHO-K1, Membrane. Particulars: cho-k1.
Turning to `COc1ccc(Cc2nccc3cc(OC)c(OC)cc23)cc1OC` [PAPAVERINE], the IC50 result was “Not Active”.

Consider `OCCN1CCN(CCCN2c3ccccc3Sc3ccc(Cl)cc32)CC1` [PERPHENAZINE], for which the IC50 result is recorded as “Not Active”.

Consider `CCCCC1C(=O)N(c2ccccc2)N(c2ccccc2)C1=O` [PHENYLBUTAZONE], for which the IC50 entry is listed as “Not Active”.

Tested on in the next assay: not listed separately
As to the kind of experiment: DRUGMATRIX: GABAA, Muscimol, Central radioligand binding (ligand: [3H] Muscimol). Format: cell membranes, Rattus norvegicus, Wistar, Brain, Membrane. Particulars: Not Active = under 50% inhibition at 10 µM.
On to `COc1ccc(Cc2nccc3cc(OC)c(OC)cc23)cc1OC` [PAPAVERINE], for which the IC50 result is given as “Not Active” and the Ki entry is recorded as “Not Active”.

Take `OCCN1CCN(CCCN2c3ccccc3Sc3ccc(Cl)cc32)CC1` [PERPHENAZINE]: the IC50 entry is “Not Active” and the Ki result is on record as “Not Active”.

On to `CCCCC1C(=O)N(c2ccccc2)N(c2ccccc2)C1=O` [PHENYLBUTAZONE], for which the IC50 entry is reported as “Not Active” and the Ki entry was “Not Active”.

Tested on in a further assay: not listed separately
As to the kind of experiment: DRUGMATRIX: Glutamate, NMDA, Agonism radioligand binding (ligand: [3H] CGP-39653). Format: cell membranes, Rattus norvegicus, Wistar, Cerebral cortex, Membrane. The conditions noted are these: Not Active = under 50% inhibition at 10 µM.
As to `COc1ccc(Cc2nccc3cc(OC)c(OC)cc23)cc1OC` [PAPAVERINE], the IC50 entry was “Not Active” and the Ki result is recorded as “Not Active”.

Regarding `OCCN1CCN(CCCN2c3ccccc3Sc3ccc(Cl)cc32)CC1` [PERPHENAZINE], the IC50 entry is “Not Active” and the Ki entry is listed as “Not Active”.

As for `CCCCC1C(=O)N(c2ccccc2)N(c2ccccc2)C1=O` [PHENYLBUTAZONE], the IC50 entry is “Not Active” and the Ki result was “Not Active”.

The target of another assay is T4, Angiotensin-converting enzyme (Oryctolagus cuniculus, UniProt P12822).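 Note: enzymatic inhibition of angiotensin-converting enzyme measured with FAPGG as the substrate; in other assays of this panel Not Active means under 50% inhibition at 10 µM.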
T4 sequence (P12822 whole entry): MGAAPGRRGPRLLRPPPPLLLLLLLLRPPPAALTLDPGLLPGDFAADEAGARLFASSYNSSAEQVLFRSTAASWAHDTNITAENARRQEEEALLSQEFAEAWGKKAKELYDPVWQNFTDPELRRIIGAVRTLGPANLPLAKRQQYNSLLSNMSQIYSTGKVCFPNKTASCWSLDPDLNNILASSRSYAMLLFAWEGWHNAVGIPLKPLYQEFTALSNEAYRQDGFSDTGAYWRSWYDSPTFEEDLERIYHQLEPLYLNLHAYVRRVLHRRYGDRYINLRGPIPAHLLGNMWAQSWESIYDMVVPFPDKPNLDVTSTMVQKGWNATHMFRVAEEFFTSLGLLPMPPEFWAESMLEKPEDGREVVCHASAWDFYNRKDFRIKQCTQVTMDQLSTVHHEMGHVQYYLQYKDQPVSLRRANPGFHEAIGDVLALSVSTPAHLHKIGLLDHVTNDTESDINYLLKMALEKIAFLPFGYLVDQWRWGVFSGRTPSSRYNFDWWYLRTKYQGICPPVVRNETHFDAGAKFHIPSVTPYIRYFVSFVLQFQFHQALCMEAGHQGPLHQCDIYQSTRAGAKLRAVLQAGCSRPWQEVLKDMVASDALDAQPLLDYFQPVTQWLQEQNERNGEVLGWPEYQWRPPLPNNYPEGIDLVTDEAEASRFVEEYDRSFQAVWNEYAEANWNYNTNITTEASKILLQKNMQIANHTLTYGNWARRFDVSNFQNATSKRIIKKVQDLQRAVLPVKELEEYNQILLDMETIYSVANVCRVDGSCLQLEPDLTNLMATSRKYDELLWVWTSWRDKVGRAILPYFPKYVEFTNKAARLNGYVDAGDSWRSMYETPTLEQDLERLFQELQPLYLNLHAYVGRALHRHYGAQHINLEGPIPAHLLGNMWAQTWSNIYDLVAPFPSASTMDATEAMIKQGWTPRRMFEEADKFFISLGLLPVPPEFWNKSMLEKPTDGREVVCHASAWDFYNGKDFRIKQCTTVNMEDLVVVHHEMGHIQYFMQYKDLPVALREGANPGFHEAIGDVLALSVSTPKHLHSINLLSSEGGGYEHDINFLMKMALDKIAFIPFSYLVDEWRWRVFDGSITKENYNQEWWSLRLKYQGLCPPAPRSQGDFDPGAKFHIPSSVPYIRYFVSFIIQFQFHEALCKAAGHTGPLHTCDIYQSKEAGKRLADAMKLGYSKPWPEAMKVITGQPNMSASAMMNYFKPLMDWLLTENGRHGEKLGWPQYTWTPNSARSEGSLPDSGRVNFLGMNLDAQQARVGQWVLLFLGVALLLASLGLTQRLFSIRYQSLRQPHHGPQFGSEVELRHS
Experiment: not given
Format: tissue-based, Lung.
Conditions: not given
For the compound `COc1ccc(Cc2nccc3cc(OC)c(OC)cc23)cc1OC` [PAPAVERINE], the IC50 result is given as “Not Active”.

Take `OCCN1CCN(CCCN2c3ccccc3Sc3ccc(Cl)cc32)CC1` [PERPHENAZINE]: the IC50 result is listed as “Not Active”.

Take `CCCCC1C(=O)N(c2ccccc2)N(c2ccccc2)C1=O` [PHENYLBUTAZONE]: the IC50 entry is given as “Not Active”.

These data come from ChEMBL document CHEMBL1909046, “DrugMatrix in vitro pharmacology data”.
